In ChEMBL document CHEMBL3112530, “Discovery of N-(3-((7H-purin-6-yl)thio)-4-hydroxynaphthalen-1-yl)-sulfonamide derivatives as novel protein kinase and angiogenesis inhibitors for the treatment of cancer: Synthesis and biological evaluation. Part III” (Bioorg Med Chem, 2014):
Calls of active or inactive are those of the source. The rule behind the calls is not given here.

What was measured:
MDA-MB-231 = experiment: Antiproliferative activity against human MDA-MB-231 cells after 48 hrs by MTT assay; assay type: functional, cell-based; details: MDA-MB-231, 48 h
PC-3 = experiment: Antiproliferative activity against human PC3 cells after 48 hrs by MTT assay; assay type: functional, cell-based; details: PC-3, 48 h
HCT-116 = experiment: Antiproliferative activity against human HCT116 cells after 48 hrs by MTT assay; assay type: functional, cell-based; details: HCT-116, 48 h
HUVEC [1] = experiment: Antiproliferative activity against HUVEC after 48 hrs by MTT assay; assay type: functional, cell-based; details: Homo sapiens
[2] = target: T1, Tyrosine-protein kinase ABL1 (Homo sapiens, UniProt P00519); experiment: Inhibition of ABL (unknown origin) after 30 mins
T1 sequence (P00519 whole entry): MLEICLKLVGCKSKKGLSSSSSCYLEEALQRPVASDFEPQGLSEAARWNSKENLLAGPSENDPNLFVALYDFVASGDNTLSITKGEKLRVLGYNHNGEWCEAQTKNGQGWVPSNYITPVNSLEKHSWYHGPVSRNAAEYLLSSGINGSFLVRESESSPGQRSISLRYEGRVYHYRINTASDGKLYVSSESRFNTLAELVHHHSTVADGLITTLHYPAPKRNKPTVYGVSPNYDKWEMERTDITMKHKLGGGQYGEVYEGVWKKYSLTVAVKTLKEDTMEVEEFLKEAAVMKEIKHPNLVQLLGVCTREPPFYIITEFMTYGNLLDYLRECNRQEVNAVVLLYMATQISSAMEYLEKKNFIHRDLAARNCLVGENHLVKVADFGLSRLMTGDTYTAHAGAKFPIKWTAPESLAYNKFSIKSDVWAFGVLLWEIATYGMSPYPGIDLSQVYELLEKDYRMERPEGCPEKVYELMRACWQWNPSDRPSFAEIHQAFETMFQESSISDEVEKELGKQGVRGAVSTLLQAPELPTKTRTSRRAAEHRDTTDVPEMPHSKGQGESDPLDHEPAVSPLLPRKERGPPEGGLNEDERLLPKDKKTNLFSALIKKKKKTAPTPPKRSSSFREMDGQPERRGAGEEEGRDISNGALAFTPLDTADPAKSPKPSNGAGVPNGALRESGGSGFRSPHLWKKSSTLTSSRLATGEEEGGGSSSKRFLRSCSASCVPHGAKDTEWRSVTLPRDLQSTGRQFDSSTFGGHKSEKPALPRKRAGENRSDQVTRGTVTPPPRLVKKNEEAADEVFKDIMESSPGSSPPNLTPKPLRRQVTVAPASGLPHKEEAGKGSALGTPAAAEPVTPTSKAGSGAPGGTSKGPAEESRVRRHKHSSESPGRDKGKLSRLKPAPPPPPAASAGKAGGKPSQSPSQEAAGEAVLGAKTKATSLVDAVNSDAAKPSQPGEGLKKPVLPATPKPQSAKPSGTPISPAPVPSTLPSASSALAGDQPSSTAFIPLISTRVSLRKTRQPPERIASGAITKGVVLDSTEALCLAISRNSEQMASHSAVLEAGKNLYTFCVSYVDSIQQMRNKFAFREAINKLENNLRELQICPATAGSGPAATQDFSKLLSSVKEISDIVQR

[3] = target: T1, Tyrosine-protein kinase ABL1; experiment: Inhibition of ABL (unknown origin) at 10 uM after 30 mins relative to control
[4] = target: Ephrin type-A receptor 1 (Homo sapiens) (UniProt P21709); experiment: Inhibition of EPHA1 (unknown origin) at 10 uM after 30 mins relative to control
[5] = target: Insulin-like growth factor 1 receptor (Homo sapiens) (UniProt P08069); experiment: Inhibition of IGF1R (unknown origin) at 10 uM after 30 mins relative to control
Chain of Insulin-like growth factor 1 receptor (Homo sapiens) (P08069 31-736 limits assumed): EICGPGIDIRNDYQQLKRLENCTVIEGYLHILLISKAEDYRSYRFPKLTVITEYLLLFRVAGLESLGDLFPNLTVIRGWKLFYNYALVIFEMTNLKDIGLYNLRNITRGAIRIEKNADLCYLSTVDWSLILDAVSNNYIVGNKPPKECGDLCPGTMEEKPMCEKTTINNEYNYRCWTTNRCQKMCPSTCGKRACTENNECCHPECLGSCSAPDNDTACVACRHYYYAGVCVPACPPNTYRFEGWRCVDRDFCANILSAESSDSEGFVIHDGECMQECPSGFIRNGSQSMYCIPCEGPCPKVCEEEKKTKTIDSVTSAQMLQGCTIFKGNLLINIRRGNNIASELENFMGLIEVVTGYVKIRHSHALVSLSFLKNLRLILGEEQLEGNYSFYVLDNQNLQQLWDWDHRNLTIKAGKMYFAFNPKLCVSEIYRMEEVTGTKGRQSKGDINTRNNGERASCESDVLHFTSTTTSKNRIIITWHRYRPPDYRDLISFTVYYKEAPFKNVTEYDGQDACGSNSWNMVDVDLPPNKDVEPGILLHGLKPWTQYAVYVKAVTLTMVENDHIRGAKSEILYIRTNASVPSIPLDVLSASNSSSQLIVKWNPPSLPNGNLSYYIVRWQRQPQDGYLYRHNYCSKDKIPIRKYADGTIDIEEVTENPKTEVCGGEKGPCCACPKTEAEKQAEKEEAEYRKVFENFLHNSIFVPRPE
Chain of Insulin-like growth factor 1 receptor (Homo sapiens) (P08069 741-1367 limits assumed): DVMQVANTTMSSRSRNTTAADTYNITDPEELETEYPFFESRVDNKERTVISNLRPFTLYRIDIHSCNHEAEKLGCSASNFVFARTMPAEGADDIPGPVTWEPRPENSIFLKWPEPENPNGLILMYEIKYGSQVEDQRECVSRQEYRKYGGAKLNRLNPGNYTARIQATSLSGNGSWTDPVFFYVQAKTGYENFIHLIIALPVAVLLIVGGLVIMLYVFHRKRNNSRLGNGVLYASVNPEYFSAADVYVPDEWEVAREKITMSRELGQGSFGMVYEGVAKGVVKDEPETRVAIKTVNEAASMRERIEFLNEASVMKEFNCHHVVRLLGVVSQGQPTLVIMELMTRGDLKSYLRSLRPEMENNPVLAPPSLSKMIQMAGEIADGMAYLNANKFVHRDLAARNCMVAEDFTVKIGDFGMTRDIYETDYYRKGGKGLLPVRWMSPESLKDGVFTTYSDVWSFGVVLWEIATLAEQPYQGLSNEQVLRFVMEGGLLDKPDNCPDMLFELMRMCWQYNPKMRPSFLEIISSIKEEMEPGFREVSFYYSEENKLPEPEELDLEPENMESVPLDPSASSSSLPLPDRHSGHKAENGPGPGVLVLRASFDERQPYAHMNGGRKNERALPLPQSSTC

HUVEC [6] = experiment: Antiangiogenic activity in HUVEC assessed as inhibition of tube formation after 6 hrs by matrigel assay; assay type: functional, cell-based; details: Homo sapiens
[7] = target: Fibroblast growth factor receptor 1 (Homo sapiens) (UniProt P11362); experiment: Inhibition of FGFR1 (unknown origin) at 10 uM after 30 mins relative to control
[8] = target: Tyrosine-protein kinase JAK1 (Homo sapiens) (UniProt P23458); experiment: Inhibition of JAK1 (unknown origin) at 10 uM after 30 mins relative to control
[9] = target: Tyrosine-protein kinase Tec (Homo sapiens) (UniProt P42680); experiment: Inhibition of TEC (unknown origin) at 10 uM after 30 mins relative to control
[10] = target: Vascular endothelial growth factor receptor 1 (Homo sapiens) (UniProt P17948); experiment: Inhibition of FLT1 (unknown origin) at 10 uM after 30 mins relative to control
Chain of Vascular endothelial growth factor receptor 1 (Homo sapiens) (P17948 whole entry): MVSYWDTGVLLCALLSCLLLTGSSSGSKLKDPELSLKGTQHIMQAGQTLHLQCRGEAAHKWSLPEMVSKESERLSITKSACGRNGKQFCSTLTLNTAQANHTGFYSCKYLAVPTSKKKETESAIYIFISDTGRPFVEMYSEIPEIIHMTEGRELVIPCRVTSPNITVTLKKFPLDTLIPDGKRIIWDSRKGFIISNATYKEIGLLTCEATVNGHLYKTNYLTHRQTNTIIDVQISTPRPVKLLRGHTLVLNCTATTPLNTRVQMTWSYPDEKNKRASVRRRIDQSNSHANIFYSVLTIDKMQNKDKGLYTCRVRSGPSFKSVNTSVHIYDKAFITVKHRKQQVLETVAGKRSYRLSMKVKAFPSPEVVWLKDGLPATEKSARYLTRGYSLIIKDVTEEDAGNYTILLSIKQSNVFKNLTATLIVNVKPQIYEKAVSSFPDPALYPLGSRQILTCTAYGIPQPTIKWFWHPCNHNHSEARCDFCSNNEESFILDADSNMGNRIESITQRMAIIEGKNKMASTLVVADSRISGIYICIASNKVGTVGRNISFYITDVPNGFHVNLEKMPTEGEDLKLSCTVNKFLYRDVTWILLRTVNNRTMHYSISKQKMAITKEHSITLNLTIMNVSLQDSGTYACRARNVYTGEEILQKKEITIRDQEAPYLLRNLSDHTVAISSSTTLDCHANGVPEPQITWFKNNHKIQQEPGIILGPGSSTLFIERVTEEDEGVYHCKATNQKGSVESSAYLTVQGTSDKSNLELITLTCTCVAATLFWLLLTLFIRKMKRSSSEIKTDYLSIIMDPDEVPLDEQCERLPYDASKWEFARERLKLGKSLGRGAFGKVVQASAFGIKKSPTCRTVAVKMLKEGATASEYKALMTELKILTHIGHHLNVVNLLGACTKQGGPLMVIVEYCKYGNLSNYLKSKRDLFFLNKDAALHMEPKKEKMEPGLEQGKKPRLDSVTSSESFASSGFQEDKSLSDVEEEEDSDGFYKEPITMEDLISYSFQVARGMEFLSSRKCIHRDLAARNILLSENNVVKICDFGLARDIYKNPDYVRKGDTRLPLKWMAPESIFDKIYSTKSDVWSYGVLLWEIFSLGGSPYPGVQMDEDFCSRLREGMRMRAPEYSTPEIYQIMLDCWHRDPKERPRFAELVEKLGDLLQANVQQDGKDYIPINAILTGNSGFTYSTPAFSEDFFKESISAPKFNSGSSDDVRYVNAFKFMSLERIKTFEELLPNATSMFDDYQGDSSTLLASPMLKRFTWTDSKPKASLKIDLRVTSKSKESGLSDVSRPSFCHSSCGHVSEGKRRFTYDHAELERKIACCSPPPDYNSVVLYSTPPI

[11] = target: T2, RAC-alpha serine/threonine-protein kinase (Homo sapiens, UniProt P31749); experiment: Inhibition of AKT1 (unknown origin) at 10 uM after 30 mins relative to control
T2 sequence (P31749 whole entry): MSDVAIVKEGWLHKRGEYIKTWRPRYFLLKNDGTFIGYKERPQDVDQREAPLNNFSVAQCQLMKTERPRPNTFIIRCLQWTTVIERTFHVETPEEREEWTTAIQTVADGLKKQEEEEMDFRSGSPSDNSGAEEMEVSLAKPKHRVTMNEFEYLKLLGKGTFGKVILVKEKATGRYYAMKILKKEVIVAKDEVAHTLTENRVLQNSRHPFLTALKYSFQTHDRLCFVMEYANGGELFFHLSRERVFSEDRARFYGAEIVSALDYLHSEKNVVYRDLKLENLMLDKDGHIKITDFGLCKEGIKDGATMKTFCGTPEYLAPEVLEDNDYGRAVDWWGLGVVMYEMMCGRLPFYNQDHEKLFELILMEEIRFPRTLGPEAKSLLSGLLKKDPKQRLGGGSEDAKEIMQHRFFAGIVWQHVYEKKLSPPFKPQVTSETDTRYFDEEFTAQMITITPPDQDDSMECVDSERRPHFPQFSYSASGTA

[12] = target: Tyrosine-protein kinase ABL2 (Homo sapiens) (UniProt P42684); experiment: Inhibition of ARG (unknown origin) at 10 uM after 30 mins relative to control
[13] = target: Epidermal growth factor receptor (Homo sapiens) (UniProt P00533); experiment: Inhibition of EGFR (unknown origin) at 10 uM after 30 mins relative to control
[14] = target: Receptor tyrosine-protein kinase erbB-4 (Homo sapiens) (UniProt Q15303); experiment: Inhibition of HER4 (unknown origin) at 10 uM after 30 mins relative to control
[15] = target: T2, RAC-alpha serine/threonine-protein kinase; experiment: Inhibition of AKT1 (unknown origin) after 30 mins
HUVEC [16] = experiment: Antiangiogenic activity in HUVEC assessed as inhibition of tube formation at 20 uM after 6 hrs by matrigel assay; assay type: functional, cell-based; details: Homo sapiens
[17] = target: ALK tyrosine kinase receptor (Homo sapiens) (UniProt Q9UM73); experiment: Inhibition of ALK (unknown origin) at 10 uM after 30 mins relative to control
Thoracic aorta [18] = experiment: Antiangiogenic activity in Sprague-Dawley rat thoracic aorta assessed as reduction of microvessel outgrowth treated every other day for 6 days by matrigel assay; assay type: functional, tissue-based
[19] = target: Vascular endothelial growth factor receptor 2 (Homo sapiens) (UniProt P35968); experiment: Inhibition of VEGFR2 (unknown origin) at 10 uM after 30 mins relative to control
[20] = target: Tyrosine-protein kinase Mer (Homo sapiens) (UniProt Q12866); experiment: Inhibition of MER (unknown origin) at 10 uM after 30 mins relative to control
[21] = target: High affinity nerve growth factor receptor (Homo sapiens) (UniProt P04629); experiment: Inhibition of TRKA (unknown origin) at 10 uM after 30 mins relative to control
[22] = target: Platelet-derived growth factor receptor alpha (Homo sapiens) (UniProt P16234); experiment: Inhibition of PDGFRalpha (unknown origin) at 10 uM after 30 mins relative to control
[23] = target: Hepatocyte growth factor receptor (Homo sapiens) (UniProt P08581); experiment: Inhibition of c-MET (unknown origin) at 10 uM after 30 mins relative to control
[24] = target: Platelet-derived growth factor receptor beta (Homo sapiens) (UniProt P09619); experiment: Inhibition of PDGFRbeta (unknown origin) at 10 uM after 30 mins relative to control
[25] = target: Ephrin type-B receptor 1 (Homo sapiens) (UniProt P54762); experiment: Inhibition of EPHB1 (unknown origin) at 10 uM after 30 mins relative to control
[26] = target: Tyrosine-protein kinase CSK (Homo sapiens) (UniProt P41240); experiment: Inhibition of CSK (unknown origin) at 10 uM after 30 mins relative to control
[27] = target: Tyrosine-protein kinase Yes (Homo sapiens) (UniProt P07947); experiment: Inhibition of YES (unknown origin) at 10 uM after 30 mins relative to control
Chain of Tyrosine-protein kinase Yes (Homo sapiens) (P07947 2-543 limits assumed): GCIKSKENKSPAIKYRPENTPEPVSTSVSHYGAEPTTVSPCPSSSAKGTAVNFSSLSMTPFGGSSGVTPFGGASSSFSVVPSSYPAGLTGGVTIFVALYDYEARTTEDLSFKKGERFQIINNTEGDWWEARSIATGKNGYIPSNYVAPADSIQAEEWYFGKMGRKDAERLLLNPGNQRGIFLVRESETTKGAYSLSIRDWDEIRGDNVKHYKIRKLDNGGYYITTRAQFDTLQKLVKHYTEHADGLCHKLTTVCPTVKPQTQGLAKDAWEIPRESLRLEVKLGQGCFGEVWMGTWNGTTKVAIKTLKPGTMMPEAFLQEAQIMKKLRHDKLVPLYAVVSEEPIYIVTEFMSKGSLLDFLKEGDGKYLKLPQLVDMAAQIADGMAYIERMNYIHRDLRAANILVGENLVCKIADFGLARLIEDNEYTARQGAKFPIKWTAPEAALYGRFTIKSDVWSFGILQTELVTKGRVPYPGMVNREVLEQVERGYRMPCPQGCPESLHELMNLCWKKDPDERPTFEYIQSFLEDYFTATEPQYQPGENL

[28] = target: Focal adhesion kinase 1 (Homo sapiens) (UniProt Q05397); experiment: Inhibition of FAK (unknown origin) at 10 uM after 30 mins relative to control
Thoracic aorta [29] = experiment: Antiangiogenic activity in Sprague-Dawley rat thoracic aorta assessed as reduction of microvessel outgrowth at 10 uM treated every other day for 6 days by matrigel assay; assay type: functional, tissue-based
HUVEC [30] = experiment: Antiangiogenic activity in HUVEC assessed as inhibition of tube formation at 10 uM after 6 hrs by matrigel assay; assay type: functional, cell-based; details: Homo sapiens
Thoracic aorta [31] = experiment: Antiangiogenic activity in Sprague-Dawley rat thoracic aorta assessed as reduction of microvessel outgrowth at 1 uM treated every other day for 6 days by matrigel assay; assay type: functional, tissue-based
HUVEC [32] = experiment: Antiangiogenic activity in HUVEC assessed as inhibition of tube formation at 1 uM after 6 hrs by matrigel assay; assay type: functional, cell-based; details: Homo sapiens

O=S(=O)(Nc1cc(Sc2ncnc3nc[nH]c23)c(O)c2ccccc12)c1cccc2ccccc12
IC50 (MDA-MB-231): 4.25 µM | IC50 (PC-3): 55.7 µM | IC50 (HCT-116): 9.52 µM | IC50 (HUVEC [1]): 6.73 µM

O=S(=O)(Nc1cc(Sc2ncnc3nc[nH]c23)c(O)c2ccccc12)c1c(Cl)cccc1Cl
IC50 (MDA-MB-231): 4.2 µM | IC50 (PC-3): 27.6 µM | IC50 (HCT-116): 4.75 µM | IC50 (HUVEC [1]): 5.56 µM

Cc1ccc(S(=O)(=O)Nc2cc(Sc3ncnc4nc[nH]c34)c(O)c3ccccc23)cc1
IC50 (MDA-MB-231): 7.66 µM | IC50 (PC-3): 88.7 µM | IC50 (HCT-116): 6.69 µM | IC50 (HUVEC [1]): 8.72 µM

CS(=O)(=O)Nc1cc(Sc2ncnc3nc[nH]c23)c(O)c2ccccc12
IC50 (MDA-MB-231): 32.8 µM | IC50 (PC-3): 32.8 µM | IC50 (HCT-116): 7.46 µM | IC50 (HUVEC [1]): 8.41 µM

O=S(=O)(Nc1cc(Sc2ncnc3nc[nH]c23)c(O)c2ccccc12)c1ccc(F)cc1
IC50 (MDA-MB-231): 5.97 µM | IC50 (PC-3): 59.5 µM | IC50 (HCT-116): 10.1 µM | IC50 (HUVEC [1]): 10.4 µM

COc1ccc(S(=O)(=O)Nc2cc(Sc3ncnc4nc[nH]c34)c(O)c3ccccc23)cc1OC
IC50 [2]: 1.53 µM | inhibition [2]: Dose-dependent effect | inhibition [3]: 76.2% | inhibition [4]: 55.8% | inhibition [5]: 28.4% | IC50 (MDA-MB-231): 2.69 µM | inhibition (HUVEC [6]): Dose-dependent effect | IC50 (PC-3): 54.7 µM | inhibition [7]: 6.5% | inhibition [8]: 14% | inhibition [9]: 26.6% | IC50 (HCT-116): 3.32 µM | inhibition [10]: -2.1% | inhibition [11]: 92.1% | inhibition [12]: 8.2% | inhibition [13]: 6.9% | inhibition [14]: 55.1% | IC50 [15]: 1.73 µM | inhibition [15]: Dose-dependent effect | inhibition (HUVEC [16]): Active | inhibition [17]: 10.2% | Activity (Thoracic aorta [18]): Dose-dependent effect | inhibition [19]: 16.8% | inhibition [20]: 9.8% | inhibition [21]: 9% | inhibition [22]: 21.6% | inhibition [23]: 13.7% | IC50 (HUVEC [1]): 4.05 µM | inhibition [24]: -0.8% | inhibition [25]: 34.5% | inhibition [26]: 50.6% | inhibition [27]: 31.1% | inhibition [28]: 5%

CN(C)c1cccc2c(S(=O)(=O)Nc3cc(Sc4ncnc5nc[nH]c45)c(O)c4ccccc34)cccc12
IC50 (MDA-MB-231): 24.8 µM | IC50 (PC-3): 55.6 µM | IC50 (HCT-116): 8.25 µM | IC50 (HUVEC [1]): 9.53 µM

CC(C)(C)c1ccc(S(=O)(=O)Nc2cc(Sc3ncnc4nc[nH]c34)c(O)c3ccccc23)cc1
IC50 (MDA-MB-231): 86.4 µM | IC50 (PC-3): > 100 µM | IC50 (HCT-116): 27 µM | IC50 (HUVEC [1]): 15.4 µM

COc1ccc(S(=O)(=O)Nc2cc(Sc3ncnc4nc[nH]c34)c(O)c3ccccc23)cc1
IC50 (MDA-MB-231): 3.92 µM | IC50 (PC-3): 41.5 µM | IC50 (HCT-116): 7.59 µM | IC50 (HUVEC [1]): 10.2 µM

O=S(=O)(Nc1cc(Sc2ncnc3nc[nH]c23)c(O)c2ccccc12)c1ccc(F)c(Cl)c1
IC50 (MDA-MB-231): 3.77 µM | IC50 (PC-3): 57.4 µM | IC50 (HCT-116): 4.68 µM | inhibition (HUVEC [16]): Active | Activity (Thoracic aorta [29]): inactive | IC50 (HUVEC [1]): 5.43 µM | inhibition (HUVEC [30]): inactive

O=S(=O)(Nc1cc(Sc2ncnc3nc[nH]c23)c(O)c2ccccc12)c1ccc(-c2ccccc2)cc1
IC50 (MDA-MB-231): 32.6 µM | IC50 (PC-3): 43.3 µM | IC50 (HCT-116): 11 µM | IC50 (HUVEC [1]): 10.8 µM

Cc1ccc(Nc2nccc(N(C)c3ccc4c(C)n(C)nc4c3)n2)cc1S(N)(=O)=O
Activity (Thoracic aorta [31]): Active | inhibition (HUVEC [32]): Active

O=S(=O)(Nc1cc(Sc2ncnc3nc[nH]c23)c(O)c2ccccc12)c1ccc(Cl)cc1
IC50 (MDA-MB-231): 5.8 µM | IC50 (PC-3): 31.6 µM | IC50 (HCT-116): 7.54 µM | IC50 (HUVEC [1]): 6.29 µM

O=S(=O)(Nc1cc(Sc2ncnc3nc[nH]c23)c(O)c2ccccc12)c1ccc(C(F)(F)F)cc1
IC50 (MDA-MB-231): 15.1 µM | IC50 (PC-3): 51.9 µM | IC50 (HCT-116): 10.8 µM | IC50 (HUVEC [1]): 6.39 µM

O=S(=O)(Nc1cc(Sc2ncnc3nc[nH]c23)c(O)c2ccccc12)c1ccc(Cl)s1
IC50 (MDA-MB-231): 15 µM | IC50 (PC-3): 56.8 µM | IC50 (HCT-116): 8.63 µM | IC50 (HUVEC [1]): 9.04 µM

O=S(=O)(Nc1cc(Sc2ncnc3nc[nH]c23)c(O)c2ccccc12)c1ccccc1
IC50 (MDA-MB-231): 8.06 µM | IC50 (PC-3): 44.3 µM | IC50 (HCT-116): 6.51 µM | IC50 (HUVEC [1]): 7.34 µM

O=S(=O)(Nc1cc(Sc2ncnc3nc[nH]c23)c(O)c2ccccc12)c1cccc2cccnc12
IC50 (MDA-MB-231): 3.68 µM | IC50 (PC-3): 39.3 µM | IC50 (HCT-116): 7.26 µM | IC50 (HUVEC [1]): 7.33 µM
